Results on 2 molecules are retold here after article PMC12011790, “Synergistic chemo-immunotherapy for osteosarcoma via a pH-responsive multi-component nanoparticle system” (Frontiers in Pharmacology, 2025).

The conditions of series [1]: cumulative doses exceeding 550 mg/m^2; ref Alberts and Garcia, 1997; Treat et al., 1990; cited from earlier work. The text has this: A major challenge in OS treatment lies in the toxicity associated with conventional chemotherapeutic agents. […] Although reducing DOX dosage can alleviate the cardiotoxicity, this reduction risks compromising the therapeutic efficacy, particularly its ability to induce immunogenic cell ...

Series [2] deals with LM8 cells. Nature of the series: Calreticulin (CRT) surface exposure, flow cytometry. The format is cell-based, murine. To be noted: 10 μM DOX or equivalent, 24 h, mean ± SEM by Figure 3 legend. On the procedure: (§1) The immunogenic cell death (ICD) biomarkers, including calreticulin (CRT), high-mobility group box 1 (HMGB1), and adenosine triphosphate (ATP), were analyzed. LM-8 cells were seeded in 24-well plates at a density of 1 × 10^5 cells per well, and the cells were allowed to grow to an appropriate confluence.
After treatment, the cells were digested, collected, and washed twice with cold PBS. To determine the surface expression of CRT, the cells were blocked with CD16/32 antibody for 10 min, incubated with Alexa 488-anti-CRT antibody (EPR3924, 1:500 v/v, Abcam) for 15 min at 4°C, washed once with PBS, resuspended with PBS, and detected by flow cytometry.
In general terms: A flow cytometer gives signals particle by particle.

For the next series, the system named is LM8 osteosarcoma. Description: Antitumor efficacy in LM8-bearing osteosarcoma model. The format is in vivo. The settings on record: LM8-bearing C3H/HeJ mice, tail vein, DOX equivalent 10 mg/kg every other day, 7 doses, n = 5. On the procedure: To investigate the in vivo antitumor effects, male C3H/HeJ mice (8–10 weeks old) were purchased from GemPharmatech (Nanjing, China). All animal experiments were conducted with the relevant institutional guidelines of Jiangsu University, and were approved by the Institutional Animal Care And Use Committees of Jiangsu University (UJS-IACUC-2024080202).
[…] LM8-bearing OS model was established by injected subcutaneously 1 × 10^7 LM8 cells into the backs of mice. Tumor growth was allowed to proceed for approximately 7 days prior to treatment until the tumors reached a measurable size. Tumor size was monitored using a caliper, with tumor volume calculated according to the formula: (length × width^2)/2.
(§2) Each group received the corresponding treatment via tail vein injection, with a DOX equivalent dose of 10 mg/kg administered every other day for a total of 7 doses. Tumor volume and mouse body weight were recorded every other day during the treatment. On day 14, the mice were euthanized under anesthesia, and the tumors were excised and weighed for further analysis. The tumor was further stained with hematoxylin and eosin (H&E) after mice sacrificed.

The test system of series [3] is LM8 murine osteosarcoma cells. Nature of the series: CCK-8 cell viability. The format is cell-based. The settings on record: 48 h, pH not stated, mean ± SD, n = 3. On the procedure:
The LM8 murine osteosarcoma cell line, derived from C3H/He mice, was purchased from HyCyte™ (Suzhou, China). LM8 cells were maintained in Dulbecco’s modified Eagle’s medium (DMEM, Gibco, NY, United States) supplemented with 10% fetal bovine serum (FBS, Gibco). Cells were cultured at 37°C in an incubator under 5% CO2.
LM-8 cells were seeded at a density of 1 × 10^6 cells/mL in a 96-well plate. After 24 h incubation, the culture medium was replaced with 100 μL of medium containing serial dilutions of different treatment samples. After 48 h incubation, 10 μL of the CCK-8 reagent (Dojindo, Kyushu, Japan) was added into each well and incubated for further 2 h at 37°C. The absorbance of each sample was measured at 450 nm using a multifunction microplate reader (Biotek, VT, United States).

The subject of series [4] is immune cell populations in the tumor, and tumor-draining lymph nodes. Description: Flow cytometric immune cell profiling of tumor and tumor-draining lymph nodes. The format is in vivo, C3H/HeJ mice. The settings on record: post-treatment, flow cytometry. The text has this:
Flow cytometry was applied to characterize the change in immune cell populations in the tumor, and tumor-draining lymph nodes (TDLNs). Excised tumors were harvested, homogenized and consecutively strained through 70-μm filters to obtain single cell suspensions, while the lymph nodes were manually dissociated through a 40-μm filter to obtain a single cell suspension. Cells were stained with fluorescent antibodies to identify immune cell pollutions.
Single-cell suspensions of TDLNs were stained with CD11c (clone N418; Biolegend), CD80 (clone 16-10A1; Biolegend), CD86 (clone GL1; Biolegend) for the analysis of mature DCs.
Single-cell suspensions of tumor tissues were stained with CD3 (clone 145-2C11; BD), CD4 (clone RM4-5; BD), CD8 (clone 53–6.7; Biolegend), CD62L (clone MEL-14; Biolegend), or CD44 (clone 1M7; Biolegend) antibodies for flow cytometry analysis. For intracellular cytokine and marker staining, after extracellular staining, cells were fixed and permeabilized with BD Cytofix/Cytoperm kit (BD Biosciences) and incubated with fluorescently conjugated antibodies against IFNγ (clone XMG1.2; Biolegend) or granzyme B (clone GB11; Biolegend) antibodies. […] Samples were run on a Beckman Coulter Gallios™ flow cytometer and analyzed using FlowJo software.

Series [5] deals with LM8 cells. Description: Extracellular ATP release, bioluminescence kit. The format is cell-based, murine. To be noted: LM8 culture supernatant, 10 μM DOX or equivalent, 24 h, mean ± SEM by Figure 3 legend. On the procedure:
as §1
On the other hand, additional sets of cells received identical treatments were employed to determine the released HMGB1 and ATP. Briefly, culture supernatant was collected and centrifuged to remove cell debris. Subsequently, the extracellular HMGB1 was quantified using an enzyme-linked immunosorbent assay (ELISA) kits (R&D systems, China), whereas the supernatant ATP was quantified using a bioluminescence kit (No. S0026, Beyotime, China) and measured by a multifunction microplate reader.

Series [6] is described as follows: Body weight during treatment (systemic toxicity). The format is in vivo, C3H/HeJ mice. To be noted: LM8-bearing mice; tail vein, DOX equivalent 10 mg/kg every other day, 7 doses. On the procedure:
as §2

The nature of series [7]: Stability (retention) of the PD-1/PD-L1 peptide in PBS and FBS-containing PBS, HPLC. The settings on record: 48 h; for peptide content remaining: peptide conjugated in co-loaded nanoparticles, FBS-containing PBS (50% FBS), mean ± SD, n = 3, SD. The format is in vitro ADME. The text has this: […] Peptide content was quantified using high-performance liquid chromatography (HPLC). This analysis aimed to determine peptide degradation in PBS and FBS-containing media, considering the potential influence of protease activity present in serum.

Take `COc1cccc2c1C(=O)c1c(O)c3c(c(O)c1C2=O)C[C@@](O)(C(=O)CO)C[C@@H]3O[C@H]1C[C@H](N)[C@H](O)[C@H](C)O1.Cl` [free DOX, Doxorubicin hydrochloride]: in series [1], the “long-term survivors affected by cardiotoxicity” value was “approximately 30%”. Besides, the “CRT exposure (% of cells)” value with LM8 cells [2] is given as 73.04% ± 6.35%. In addition, in the series on LM8 osteosarcoma (14 days), the “tumor growth (tumor volume)” value is “moderate reduction in tumor growth”. The “tumor mass at end of study” value in the series with LM8 osteosarcoma (day 14) was “moderate reductions in tumor mass”. In addition, the IC50 (as a rule, the concentration that inhibits the measured activity by half) in series [3] stood at 13.3 ± 1.24 µM. Moreover, in series [4], the “infiltrated CTLs (CD3+CD8+) in tumor tissue” value is given as “moderate CTLs infiltration”. For the same molecule, the “extracellular ATP level” value with LM8 cells [5] is recorded as 266.05 ± 42.73 nM. In addition, the body weight change result in series [6] is recorded as “significant weight loss”.
Turning to “CGGGGSHFSASYDKYAEKF [PD-1/PD-L1 targeting peptide]”, the peptide remaining intact result in series [7] (peptide conjugated as DSPE-PEG-peptide in co-loaded nanoparticles, PBS, 37°C, n = 3) is listed as “over 90%”. Further, the peptide content remaining is given as 78.57% ± 0.81% in series [7] (25°C) and 72.32% ± 1.26% in series [7] (37°C).
